Results reported in publication PMC5920526 (ACS catalysis, 2017).

Key:
SpNanC [1] = experiment: Substrate specificity of SpNanC with pNP-tagged α2–3-linked sialosides; type: biochemical, Streptococcus pneumoniae; conditions: sialoside as substrate of SpNanC
SpNanC [2] = experiment: Kinetics studies of SpNanC; type: biochemical, Streptococcus pneumoniae; conditions: substance as substrate of SpNanC
SpNanA = SpNanA (Streptococcus pneumoniae, UniProt P62575); experiment: biochemical; conditions: for inhibitory activity against SpNanA (in words): 0.1 mM inhibitor; for IC50: read-out: IC50 against SpNanA, Neu5Acα2–3GalβpNP as substrate
Sequence of SpNanA (P62575 54-1035): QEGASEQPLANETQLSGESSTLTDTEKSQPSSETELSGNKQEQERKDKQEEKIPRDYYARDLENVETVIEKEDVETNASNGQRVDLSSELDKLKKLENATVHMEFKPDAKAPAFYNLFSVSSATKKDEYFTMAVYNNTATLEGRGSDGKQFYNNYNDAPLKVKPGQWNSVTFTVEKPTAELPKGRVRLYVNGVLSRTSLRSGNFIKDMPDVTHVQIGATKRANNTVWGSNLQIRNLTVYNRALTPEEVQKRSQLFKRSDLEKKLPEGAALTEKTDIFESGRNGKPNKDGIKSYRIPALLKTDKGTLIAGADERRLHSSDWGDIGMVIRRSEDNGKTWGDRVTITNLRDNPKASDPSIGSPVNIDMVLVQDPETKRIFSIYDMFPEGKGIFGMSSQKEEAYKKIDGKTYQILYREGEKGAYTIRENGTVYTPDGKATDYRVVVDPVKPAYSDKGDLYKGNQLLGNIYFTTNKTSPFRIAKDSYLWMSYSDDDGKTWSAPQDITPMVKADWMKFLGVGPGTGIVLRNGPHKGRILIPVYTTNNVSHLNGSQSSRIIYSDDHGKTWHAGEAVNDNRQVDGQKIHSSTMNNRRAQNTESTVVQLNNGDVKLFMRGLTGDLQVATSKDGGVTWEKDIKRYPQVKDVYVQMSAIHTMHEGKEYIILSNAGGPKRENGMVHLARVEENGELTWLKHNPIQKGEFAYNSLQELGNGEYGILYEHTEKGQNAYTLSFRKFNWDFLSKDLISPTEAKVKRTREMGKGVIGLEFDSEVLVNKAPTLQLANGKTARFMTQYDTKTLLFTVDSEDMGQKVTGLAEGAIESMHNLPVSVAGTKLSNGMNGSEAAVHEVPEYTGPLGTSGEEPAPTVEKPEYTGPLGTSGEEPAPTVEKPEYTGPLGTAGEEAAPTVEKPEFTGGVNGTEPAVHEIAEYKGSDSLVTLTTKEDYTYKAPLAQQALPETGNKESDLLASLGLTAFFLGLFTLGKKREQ

SpNanB = SpNanB (Streptococcus pneumoniae serotype 4, UniProt Q54727); experiment: Sialidase inhibition, Neu5Acα2–3GalβpNP as substrate; type: biochemical; conditions: 0.1 mM inhibitor
Sequence of SpNanB (Q54727 30-697): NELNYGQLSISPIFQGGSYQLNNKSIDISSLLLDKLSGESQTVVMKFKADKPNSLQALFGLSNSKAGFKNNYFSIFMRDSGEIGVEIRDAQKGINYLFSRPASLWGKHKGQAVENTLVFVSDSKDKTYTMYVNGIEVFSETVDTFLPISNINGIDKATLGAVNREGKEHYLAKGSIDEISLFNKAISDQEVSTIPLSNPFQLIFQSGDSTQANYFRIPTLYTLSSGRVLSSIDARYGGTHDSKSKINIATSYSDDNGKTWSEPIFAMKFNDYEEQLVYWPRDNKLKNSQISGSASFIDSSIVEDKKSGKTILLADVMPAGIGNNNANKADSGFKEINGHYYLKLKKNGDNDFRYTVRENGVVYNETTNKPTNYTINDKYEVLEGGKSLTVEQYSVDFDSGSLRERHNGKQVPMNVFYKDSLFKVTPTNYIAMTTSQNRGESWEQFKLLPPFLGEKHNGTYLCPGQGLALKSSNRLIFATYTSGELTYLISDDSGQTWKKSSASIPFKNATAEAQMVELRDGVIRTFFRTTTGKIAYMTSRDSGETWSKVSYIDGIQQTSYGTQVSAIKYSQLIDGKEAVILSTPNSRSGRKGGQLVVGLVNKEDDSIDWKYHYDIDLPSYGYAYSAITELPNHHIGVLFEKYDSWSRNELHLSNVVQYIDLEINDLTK

SpNanC [3] = experiment: as above; type: biochemical, Streptococcus pneumoniae; conditions: 0.1 mM inhibitor
PmST1 = PmST1 (Pasteurella multocida, UniProt Q15KI8); type: biochemical; conditions: 0.1 mM inhibitor
BiNanH2 = BiNanH2 (Bifidobacterium longum subsp. infantis, UniProt A0ACD7UU12); experiment: Sialidase inhibition, Neu5Acα2–3GalβpNP as substrate; type: biochemical; conditions: for inhibitory activity against BiNanH2 (in words): 0.1 mM inhibitor; for IC50: read-out: IC50 against BiNanH2, Neu5Acα2–3GalβpNP as substrate
AuSialidase = AuSialidase (Paenarthrobacter ureafaciens, UniProt Q5W7Q2); experiment: as above; type: biochemical, Arthrobacter ureafaciens; conditions: for inhibitory activity against AuSialidase (in words): 0.1 mM inhibitor
CpNanH = CpNanH (Clostridium perfringens, UniProt P10481); type: biochemical
Sequence of CpNanH (P10481 whole entry, looked up): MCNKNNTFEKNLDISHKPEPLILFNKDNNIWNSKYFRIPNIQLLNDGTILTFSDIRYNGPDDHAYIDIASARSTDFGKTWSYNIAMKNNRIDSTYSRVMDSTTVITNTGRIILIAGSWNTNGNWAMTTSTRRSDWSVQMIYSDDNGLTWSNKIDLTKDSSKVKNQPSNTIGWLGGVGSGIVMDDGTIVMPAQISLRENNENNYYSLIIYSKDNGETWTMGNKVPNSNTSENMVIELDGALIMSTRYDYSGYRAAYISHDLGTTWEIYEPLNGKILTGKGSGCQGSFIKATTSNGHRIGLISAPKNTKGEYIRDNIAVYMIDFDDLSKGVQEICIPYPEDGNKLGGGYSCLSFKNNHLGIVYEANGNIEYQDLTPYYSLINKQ

CpNanI = type: biochemical, Clostridium perfringens; conditions: 0.1 mM inhibitor
VcSialidase = VcSialidase (Vibrio cholerae serotype O1, UniProt P0C6E9); experiment: biochemical
Sequence of VcSialidase (P0C6E9 25-781): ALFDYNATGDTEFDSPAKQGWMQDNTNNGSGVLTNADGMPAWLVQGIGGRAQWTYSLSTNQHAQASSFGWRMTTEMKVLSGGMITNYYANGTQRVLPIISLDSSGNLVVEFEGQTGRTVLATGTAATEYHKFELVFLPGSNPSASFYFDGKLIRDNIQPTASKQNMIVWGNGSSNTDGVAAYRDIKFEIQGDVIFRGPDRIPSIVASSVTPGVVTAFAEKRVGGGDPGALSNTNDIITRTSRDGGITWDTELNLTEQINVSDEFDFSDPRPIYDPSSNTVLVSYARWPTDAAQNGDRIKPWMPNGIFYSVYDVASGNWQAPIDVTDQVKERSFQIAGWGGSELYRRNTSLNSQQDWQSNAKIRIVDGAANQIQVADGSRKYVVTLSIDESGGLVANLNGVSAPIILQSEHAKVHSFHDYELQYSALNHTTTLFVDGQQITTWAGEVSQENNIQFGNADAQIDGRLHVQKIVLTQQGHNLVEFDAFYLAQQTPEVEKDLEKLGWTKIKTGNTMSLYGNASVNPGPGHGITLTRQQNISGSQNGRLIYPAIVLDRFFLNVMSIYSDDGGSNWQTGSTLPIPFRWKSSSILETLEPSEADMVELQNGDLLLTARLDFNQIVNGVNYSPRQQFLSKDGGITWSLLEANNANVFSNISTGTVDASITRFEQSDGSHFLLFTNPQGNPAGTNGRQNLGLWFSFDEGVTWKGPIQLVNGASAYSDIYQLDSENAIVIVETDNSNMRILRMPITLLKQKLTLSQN

[4] = molecular target: human cytosolic sialidase hNEU2 (Homo sapiens, UniProt Q9Y3R4); experiment: Sialidase inhibition, Neu5Acα2–3GalβpNP as substrate; type: biochemical; conditions: 0.1 mM inhibitor
Sequence of human cytosolic sialidase hNEU2 (Q9Y3R4 whole entry): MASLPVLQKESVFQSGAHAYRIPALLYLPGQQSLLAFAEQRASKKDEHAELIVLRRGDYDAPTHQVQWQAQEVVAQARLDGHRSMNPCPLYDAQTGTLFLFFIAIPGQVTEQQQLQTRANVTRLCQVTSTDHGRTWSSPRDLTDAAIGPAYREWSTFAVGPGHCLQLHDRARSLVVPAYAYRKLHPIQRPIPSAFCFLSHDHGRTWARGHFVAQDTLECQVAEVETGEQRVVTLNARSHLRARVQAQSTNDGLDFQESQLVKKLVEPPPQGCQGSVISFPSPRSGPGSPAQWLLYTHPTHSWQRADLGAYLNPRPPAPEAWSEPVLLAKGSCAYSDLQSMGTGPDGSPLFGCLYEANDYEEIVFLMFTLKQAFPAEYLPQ

human NEU1 = conditions: cited from earlier work
viral sialidases = conditions: cited from earlier work
recombinant SpNanC = conditions: substance as substrate of previously reported recombinant SpNanC; cited from earlier work

| SMILES | Percentage conversion (SpNanC [1]) | Km (SpNanC [2]) | kcat (SpNanC [2]) | inhibitory activity against SpNanA (in words) (SpNanA) | IC50 (SpNanA) | inhibitory activity against SpNanB (in words) (SpNanB) | inhibitory activity against SpNanC (in words) (SpNanC [3]) | inhibitory activity against PmST1 (in words) (PmST1) | inhibitory activity against BiNanH2 (in words) (BiNanH2) | inhibitory activity against AuSialidase (in words) (AuSialidase) | IC50 (AuSialidase; read-out: IC50 against AuSialidase, Neu5Acα2–3GalβpNP as substrate) | inhibitory activity against CpNanH (in words) (CpNanH) | inhibitory activity against CpNanI (in words) (CpNanI) | inhibitory activity against VcSialidase (in words) (VcSialidase) | inhibitory activity against hNEU2 (in words) [4] | IC50 (BiNanH2) | selectivity against human NEU1 (human NEU1) | selectivity against viral sialidases (viral sialidases) | Km (recombinant SpNanC) | kcat (recombinant SpNanC) |
| --- | --- | --- | --- | --- | --- | --- | --- | --- | --- | --- | --- | --- | --- | --- | --- | --- | --- | --- | --- | --- |
| CC(=O)N[C@H]1[C@H]([C@H](O)[C@H](O)CO)OC(O[C@H]2[C@@H](O)[C@@H](CO)O[C@@H](Oc3ccc([N+](=O)[O-])cc3)[C@@H]2O)(C(=O)O)C[C@@H]1O (some centres unmarked) [Neu5Acα2–3GalβpNP] | 85.1 ± 2.4% | 2700 ± 500 µM | 406.8 ± 39.0 s⁻¹ | – | – | – | – | – | – | – | – | – | – | – | – | – | – | – | – | – |
| CC(=O)N[C@@H]1C(O)C=C(C(=O)O)OC1C[C@H](O)CO (some centres unmarked) [compound 10, Neu5Ac7deoxy2en] | – | – | – | selective inhibitory activity | 10.7 ± 0.4 µM | not effective inhibitors | not effective inhibitors | not effective inhibitors | not an effective inhibitor | selective inhibitory activity | 17 ± 1 µM | not effective inhibitors | selective inhibitory activity | not an effective inhibitor | but not hNEU2 | – | – | – | – | – |
| CCCCC(=O)NC[C@@H](O)[C@@H](O)[C@@H]1OC(C(=O)O)=C[C@H](O)[C@H]1NC(C)=O [compound 12, Neu5Ac9NPent2en] | – | – | – | – | 10.5 ± 0.5 µM | not effective inhibitors | not effective inhibitors | not effective inhibitors | – | lowered the inhibitory activity | – | not effective inhibitors | – | lowered the inhibitory activity | lowered the inhibitory activity | 34 ± 2 µM | improved selectivity | – | – | – |
| CC(=O)N[C@H]1[C@H]([C@H](O)[C@H](O)CNC(=O)C2CC2)OC(C(=O)O)=C[C@@H]1O [compound 13, Neu5Ac9NCyclopro2en] | – | – | – | – | 6.8 ± 0.2 µM | not effective inhibitors | not effective inhibitors | not effective inhibitors | – | lowered the inhibitory activity | – | not effective inhibitors | – | lowered the inhibitory activity | lowered the inhibitory activity | 29 ± 2 µM | – | higher selectivity | – | – |
| O=C(Cc1ccccc1)N[C@H]1[C@H]([C@H](O)[C@H](O)CO)OC(C(=O)O)=C[C@@H]1O [compound 15, Neu5PhAc2en] | – | – | – | not any bacterial sialidases tested | – | not effective inhibitors | not effective inhibitors | not effective inhibitors | not any bacterial sialidases tested | not any bacterial sialidases tested | – | not effective inhibitors | not any bacterial sialidases tested | not any bacterial sialidases tested | retained inhibitory activity | – | – | – | – | – |
| CC(=O)N[C@H]1[C@H]([C@H](O)[C@H](O)CO)O[C@@](O[C@H]2[C@@H](O)[C@@H](CO)O[C@@H](O[C@H]3[C@H](O)[C@@H](O)C(O)O[C@@H]3CO)[C@@H]2O)(C(=O)O)C[C@@H]1O (stereo partly drawn) [α2–3-sialyllactose] | – | – | – | – | – | – | – | – | – | – | – | – | – | – | – | – | – | – | 1080 ± 350 µM | 0.313 ± 0.052 s⁻¹ |
